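Each compound was tested at five concentrations against cells in 96-well plates for 48 hours. TGI is the concentration that stops growth completely.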
Key:
Test in all cases: NCI anticancer screen, dose series, 48 h
[1] = tested on: HCC-2998 colon
[2] = tested on: UACC-257 melanoma
[3] = tested on: LOX IMVI melanoma
[4] = tested on: MDA-MB-231 breast

SMILES	TGI [1]	TGI [2]	TGI [3]	TGI [4]
CCN(CC)CCn1nc(N)c2nc3ccccc3nc21	> 100 µM	> 100 µM	> 100 µM	
O=C1CN(C(=O)C2CCCN2C(=O)C2CCCN2)C(=O)CN1 (stereo not drawn)	> 100 µM		> 100 µM	> 100 µM
COc1ccc(C[C@@H](CO)NC2=C(C#N)CCC2)cc1	> 100 µM	> 100 µM	> 100 µM	> 100 µM
CC(C)(C)OC(=O)CN1C(=O)CC1CC(=O)c1ccccc1 (stereo not drawn)	63.2 µM	35.2 µM	31.3 µM	31.1 µM
O=C1CSSCC(=O)Nc2ccccc2N1		> 100 µM	> 100 µM	> 100 µM
COc1ccccc1N(CN1C(=O)CCC1C(=O)O)C(C)=O (stereo not drawn)	> 100 µM	> 100 µM	> 100 µM	> 100 µM
CCOC(=O)N(NC(=O)NC(C)C)c1ccccc1	> 100 µM	> 100 µM	> 100 µM	> 100 µM
COc1ccc(/C=C2\CCC(C)C3C2=NN(c2ccccc2)C3c2ccc(OC)c(OC)c2)cc1OC (stereo not drawn)		9.74 µM	8.63 µM	12.5 µM
Oc1c2cc(Cl)cc1COCc1cc(Cl)cc(c1O)COCc1cc(Cl)cc(c1O)COC2	> 100 µM	> 100 µM	> 100 µM	
CC(C)(C)C(=O)OCOP(=O)(OCOC(=O)C(C)(C)C)OCC1OC(n2ccc(=O)[nH]c2=O)C(N=[N+]=[N-])C1O (stereo not drawn)	13.4 µM	18.1 µM	3.44 µM	21.1 µM
O=c1[nH]nc(-c2ccccc2)n1-c1ccncc1	> 100 µM	> 100 µM	> 100 µM	> 100 µM
c1ccc(-c2cn3c(nc4ccccc43)c(-c3ccccc3)n2)cc1	> 100 µM	> 100 µM	> 100 µM	> 100 µM
CN(C)c1ccc(/C=C2/NC(=S)NC2=O)cc1	> 100 µM	> 100 µM	> 100 µM	> 100 µM
CO/C(N)=C(\C#N)N=Cc1ccco1	> 100 µM	> 100 µM	> 100 µM	> 100 µM
O=C1N[C@H]2c3c(Cl)sc(Cl)c3[C@@H](O)[C@H]2O1	> 100 µM	> 100 µM		> 100 µM
O=C(Cn1c2c(c3ccccc31)CCCC2)N1CCCC1	> 100 µM	> 100 µM	> 100 µM	
CCOCc1c(C)cc(C)c(C2C(C(=O)c3ccccc3)N3c4ccccc4C=CC3C2(C#N)C(=O)OCC)c1C (stereo not drawn)	47.8 µM	> 100 µM	> 100 µM	
CCOC(=O)C1(Cc2ccccc2)C=CN(C(=O)c2ccccc2)C=C1	> 100 µM	51.1 µM	> 100 µM	> 100 µM
O=P1(O)c2ccccc2CCc2ccccc21	> 100 µM	> 100 µM	> 100 µM	> 100 µM
COc1cc(/C=N\N(C)C)cc(/C=N/N(C)C)c1O		98.5 µM	58.7 µM	80 µM
CC1(C)C2CCC(CN)(C2)C1N (stereo not drawn)	> 100 µM	> 100 µM	> 100 µM	> 100 µM
O=c1[nH]nc(-c2ccccc2)n1/N=C/c1ccc([N+](=O)[O-])cc1	> 83.5 µM	> 100 µM	> 100 µM	> 63.8 µM
CCOC(=O)CCCNC(=O)CCCCC(=O)N(C)C	> 100 µM	> 100 µM	> 100 µM	> 100 µM
C=C1[C@H](OC(C)=O)[C@H]2[C@@H](OC(C)=O)[C@@H](C)C[C@]2(C)C(=O)[C@H](C)/C=C/C(C)(C)C(=O)[C@H](OCC(C)C)[C@H]1OC(C)=O	> 25 µM	> 25 µM	> 25 µM	> 25 µM
CC(=N)OC1CC2CCC1(C)C2(C)C (stereo not drawn)	> 100 µM	> 100 µM	> 100 µM	> 100 µM

SMILES	TGI [1]	TGI [2]	TGI [3]	TGI [4]
COc1ccc2c(c1)-c1nc(=S)n(CCCN(C)C)c3ccc([N+](=O)[O-])c(c13)N2	18.6 µM	3.6 µM	4.57 µM	2.1 µM
COc1cc2ncnc(Nc3cccc(Cl)c3)c2cc1OC	54.3 µM	37.4 µM	43 µM	54 µM
CC(C)NC(NC(C)C)=C(S(=O)(=O)C(F)(F)C(F)(F)C(F)(F)C(F)(F)F)S(=O)(=O)C(F)(F)C(F)(F)C(F)(F)C(F)(F)F	> 100 µM	> 100 µM	> 100 µM	> 100 µM
COc1nc(N=P(c2ccccc2)(c2ccccc2)c2ccccc2)cc(=O)[nH]1	> 100 µM	> 100 µM	> 100 µM	> 100 µM
COC(=O)C1=C(O)C(C(=O)OC)[C@]2(O)[C@H](C(=O)OC)[C@H]1C[C@@H](c1ccc(OC)c(OC)c1)[C@H]2C(=O)OC (stereo partly drawn)	27.1 µM	> 100 µM	29.6 µM	> 100 µM
O=c1oc2ccccc2cc1-c1csc(Nc2ccc(F)cc2)n1	17.1 µM	> 52 µM	14.9 µM	26 µM
O=C(O)CCCn1nnc2c(=O)[nH][nH]c(=O)c21	> 100 µM	> 100 µM	> 100 µM	> 100 µM
CCOC(=O)c1cc2c([nH]1)c(O)cc1c2ccn1Cc1ccccc1	37 µM	34.8 µM	28.1 µM	49.1 µM
O=C1N=C(SC2OC(CO)C(O)C(O)C2O)S/C1=C\c1ccccc1 (stereo not drawn)	> 100 µM	> 100 µM	> 100 µM	> 100 µM
O=c1c2ccccc2[nH]c2c(Cl)cc(Cl)c(NC3CCCCC3)c12	89.9 µM	69.5 µM	> 100 µM	74.3 µM
O=S(=O)(SC1=NCCN1)c1ccc2ccccc2c1	38.7 µM	> 100 µM	> 100 µM	42.9 µM
Cc1c(C)c(C)n(C2OC(CO)C(O)C(O)C2O)c(=S)c1C#N (stereo not drawn)	> 100 µM	> 100 µM	> 100 µM	> 100 µM
CCCCCCCCCCCCN(CC(O)C(O)C(OC1OC(CO)C(O)C(O)C1O)C(O)CO)C(=O)CCCCCCCCCCC (stereo not drawn)	32.6 µM	36.6 µM	41.3 µM	42.7 µM
Cc1ccc(/C(Cl)=C/C=C(C#N)C#N)cc1		6.31 µM	3.82 µM	6.33 µM
Cc1ccc(S(=O)(=O)c2ccsc2NC(=O)C(F)(F)F)cc1	> 100 µM	> 100 µM	> 100 µM	56.2 µM
CN(C)/N=C(/CC(O)(C(F)(F)F)C(F)(F)F)c1ccc([N+](=O)[O-])cc1	> 100 µM	> 100 µM	> 100 µM	> 100 µM
Clc1ccccc1-c1nc2ccc(C34CC5CC(CC(C5)C3)C4)cc2[nH]1	> 100 µM	> 100 µM	29.8 µM	37.9 µM
O=C(O)c1ccccc1/C=N/NC1=NCCN1	> 100 µM	> 100 µM	> 100 µM	> 100 µM
COC(=O)c1cc2c(cc1CC1Cc3cc4c(cc3C1=O)CCC4)CCC2 (stereo not drawn)	> 100 µM	> 100 µM	> 100 µM	> 100 µM
Nc1cccnc1NCC1(CO)CCCC1	> 100 µM	> 100 µM	> 100 µM	> 100 µM
CC(=O)c1sc2c(c1OC(=O)c1ccco1)c(=O)n(-c1ccccc1)c(=S)n2-c1ccccc1		88.7 µM	39.3 µM	47.1 µM
OC1(c2ccc(Cl)cc2)C(N2CCCC2)c2ccccc2C2=NCCN21 (stereo not drawn)		40.6 µM	36.7 µM	> 100 µM
COC(=O)C1=C(O)C(C(=O)OC)[C@]2(O)[C@H](C(=O)OC)[C@H]1C[C@@H](c1ccc(Cl)cc1)[C@H]2C(=O)OC (stereo partly drawn)	22 µM	26.5 µM	30.1 µM	37.6 µM
O=C1CCC2(c3ccccc3)Nc3ccncc3N12 (stereo not drawn)		> 10 µM	> 10 µM	> 10 µM
CCC/C=C/c1cc2c(cc1O)CC[C@@H]1[C@@H]2CC[C@]2(C)[C@@H](O)CC[C@@H]12	38.8 µM	30.8 µM	29.3 µM	33.7 µM

SMILES	TGI [1]	TGI [2]	TGI [3]	TGI [4]
COC(=O)CC(c1cn(S(=O)(=O)c2ccc(C)cc2)c2ccccc12)C1C[C@@H](C(=O)OC)N(C(=O)OC(C)(C)C)C1=O (stereo partly drawn)		> 100 µM	> 100 µM	> 100 µM
O=C1c2[nH]c3ccc(Br)cc3c2CCN1Cc1ccc(Cl)cc1	28.3 µM	30 µM	25.9 µM	28.7 µM
COc1cc(/C=C2/SC(c3ccccc3)N(c3ccccc3Cl)C2=O)cc(OC)c1OC (stereo not drawn)	> 100 µM	> 100 µM	41.7 µM	> 100 µM
CCC(C)(C)C1CCC2c3c([nH]c4ccccc34)C3C(=O)N(c4ccc(OC)cc4)C(=O)C3C2C1 (stereo not drawn)	40.5 µM	> 100 µM	23.7 µM	32.3 µM
Cc1ccc([N+](=O)[O-])cc1S(=O)(=O)Nc1ccc(C2=NN(c3ccc([N+](=O)[O-])cc3[N+](=O)[O-])C(c3cccs3)C2)cc1 (stereo not drawn)		42.1 µM	39.9 µM	50.8 µM
N#Cc1c(=O)n(-c2ccccc2)c(O)c2c(N)n[nH]c12	> 100 µM	> 100 µM	> 100 µM	> 100 µM
CCOC(=O)c1c(NC(=O)c2cccs2)sc2c1CCC2		> 100 µM		> 100 µM
c1ccc(-c2nc3ccccc3n3c(CN4CCCCC4)nnc23)cc1	> 100 µM	> 100 µM	> 100 µM	> 100 µM
Cc1cc2cc3c(cc2c(-c2ccc([N+](=O)[O-])cc2)n1)OCO3	> 100 µM	> 100 µM	> 100 µM	84.4 µM
Cc1cc(S(=O)(=O)Nc2nc(N)n(-c3ccccn3)n2)c(S)cc1Cl	> 100 µM	> 100 µM	> 100 µM	> 100 µM
O=C(O)C1CCCN(CCc2c[nH]c3ccccc23)C1 (stereo not drawn)	> 100 µM	> 100 µM	> 100 µM	> 100 µM
CC(=O)Oc1cc(Cl)c(C)c2c1[C@H]1CC[C@]3(C)[C@@H](OC(C)=O)CC[C@H]3[C@@H]1CC2	> 100 µM	> 100 µM	> 100 µM	> 100 µM
Nc1nc(I)nc2c1ncn2C1OC(COS(N)(=O)=O)C(O)C1O (stereo not drawn)	0.0311 µM	0.0716 µM	0.0251 µM	< 0.0238 µM
Cc1cc(C)c2c(O)c(S(=O)(=O)c3ccc(Cl)cc3)c(=O)oc2c1		> 100 µM		> 100 µM
COC(=O)c1cc(C)ccc1C1CN=NC12Cc1ccc(C)cc1C2=O (stereo not drawn)	> 100 µM	> 100 µM	> 100 µM	> 100 µM
N#CC1C(=O)N(c2ccccc2)NC12OC(=O)c1ccncc12 (stereo not drawn)	> 20 µM	> 20 µM	> 20 µM	> 20 µM
OC1(c2ccccc2)C2CCN(CC2)C1CN1CCOCC1 (stereo not drawn)	> 100 µM	> 100 µM	> 100 µM	> 100 µM
O=[N+]([O-])c1ccc2c(c1)S(=O)(=O)N1Cc3ccccc3CCN21	> 100 µM	> 100 µM	> 100 µM	> 100 µM
Cc1nc(-c2cc3c(ccc4ccccc43)oc2=O)cs1	> 100 µM	> 100 µM	> 100 µM	> 100 µM
O=c1cc(N2CCNCC2)nc2ccccn12	> 100 µM	> 100 µM	> 100 µM	> 100 µM
Cc1cc2c(cc1C(=O)CCC(=O)O)CC1(C2)Cc2cc(C)c(C(=O)CCC(=O)O)cc2C1	> 100 µM	> 100 µM	> 100 µM	> 100 µM
N#CC12CNCC1CN=N2 (stereo not drawn)	> 100 µM	> 100 µM	> 100 µM	> 100 µM
COC(=O)/C=C(/C=C1/C(C#N)=C(N)N(c2ccc(Cl)cc2)C1(C)/C(=C/C(=O)OC)C(=O)OC)C(=O)OC (stereo not drawn)	> 100 µM	> 100 µM	84.6 µM	> 100 µM
